# Source: patent US7384656B2, “Anti-allergy composition and related method” (Access Business Group International LLC, priority 2004, dated 2008)
# What was measured:
# Prostaglandin D2 = assay: Allergic mediators in nasal fluid (nasal lavage) before and after NAC; assay type: in vivo, human; details: before versus after administration of allergens
# Description: To test the efficacy of an embodiment of the composition in inhibiting an allergic response, a comparative clinical study was conducted on human subjects. This clinical study consisted of testing twenty subjects for positive allergic reaction to allergen extracts (cat dander, pollen and grass). The subjects were then randomized to receive: a control, specifically a placebo; loratadine, a known anti-histamine drug, sold under the trademark CLARITIN, and a composition of the above embodiments including Picao preto, Acerola, and Cinnamon (referred to herein as the Blend). […]
# (§1) During the NAC, subjects had […] increasing doses of allergen (0 (water was administered), 50, 250, 1250, and 6250 Bioequivalent Allergy Units/ml (BAU/ml)) squirted up their noses over a period of two hours. Bioequivalent Allergy Units were calculated using ID50EAL testing (Intradermal Dilution for 50 mm Sum of Erythema Determines Bioequivalent Allergy Units) (Turkeltaub PC, Biological standardization of allergenic extracts. Allergol Immunopathol (Madr). 1989, 17:53-65.
# The allergic symptoms of the twenty subjects were measured ten minutes after each exposure to the with an eleven-point Nasal Symptom Scale, (on a scale of 1-11, 11 being the most symptoms observed), which is common to the NAC, to establish the Nasal Symptom Score. […]
# [1] = system: allergic response to allergen extracts (cat dander, pollen and grass); assay: Clinical study with Nasal Allergen Challenge (NAC): symptom scores and sneeze counts; assay type: in vivo, human
# Description: To test the efficacy of an embodiment of the composition in inhibiting an allergic response, a comparative clinical study was conducted on human subjects. This clinical study consisted of testing twenty subjects for positive allergic reaction to allergen extracts (cat dander, pollen and grass). The subjects were then randomized to receive: a control, specifically a placebo; loratadine, a known anti-histamine drug, sold under the trademark CLARITIN, and a composition of the above embodiments including Picao preto, Acerola, and Cinnamon (referred to herein as the Blend). Each of these were administered to the subjects in three doses a day for two days before receiving a Nasal Allergen Challenge (NAC), which is a commonly used test for predicting real-life efficacy of allergen treatments. Specifically, Claritin was administered in an amount of 10 mg per dose; the placebo in an amount of 450 mg per dose; and the Blend in an amount of 450 mg per dose, that dose for the Blend including 150 mg Picao preto; 150 mg Acerola and 150 mg Cinnamon. Other suitable Cinnamon levels are in the range of about 25 mg to about 650 mg; suitable Picao preto levels are in the range of 25 to about 650 mg; and suitable Acerola levels are in the range of about 25 mg to about 650 mg.
# as §1
# To analyze the allergy treatment effects of the Blend, Claritin and the placebo, a composite measurement of blockage, secretion and sneezing was determined. The smallest clinically meaningful difference in allergy treatment effects has been determined to be about a 0.5 score step on an 0 to 9 scale of the composite measurement of blockage, secretion and sneezing. Akerlund, A. et al, Clinical Trial Design, Nasal Allergen Challenge Models and Considerations of relevance to Pediatrics, Nasal Polyposis and Different Classes of Medication. J. Allergy. Clin. Imm., 115 (3.2): S460-482 (March 2005). Measurements used in connection determining blockage, secretion and sneezing were the Nasal Symptoms Score, the Pruritus-Rhinorrhea-Conjunctivitis Score, and sneeze counting, respectively.
# The allergic symptoms of the twenty subjects were measured ten minutes after each exposure to the with an eleven-point Nasal Symptom Scale, (on a scale of 1-11, 11 being the most symptoms observed), which is common to the NAC, to establish the Nasal Symptom Score. The subjects also underwent the nasal lavage to collect supernatants which were assayed for allergic reaction and inflammatory mediators: prostaglandin D2; Leukotriene […]; and tryptase.
# After the NAC, subjects were released, but continued rating their symptoms every two hours for eight hours using the Nasal Symptom Scale, as well as a 15-point Pruritus-Rhinorrhea-Conjunctivitis Scale, which is a common scale that is intended to be more sensitive than the Nasal Symptom Scale. On this scale, Pruritus, Rhinorrhea, and Conjunctivitis were each rated as none, mild, mild to moderate, moderate, moderate to severe, or severe, scored 0, 1, 2, 3, 4, or 5 points respectively, with a maximum total of 15 points for all three together. In addition, during the eight hour period, the subjects counted and recorded the number of their sneezes within each two-hour period to establish a sneeze count. […]
# [2] = system: PGD2 release, RBL-2H3 cells; assay: PGD2 release from IgE-sensitized, DNP-BSA stimulated RBL-2H3 cells (ELISA); assay type: cell-based; details: 1 μg/ml
# Description: (§2) The methodology used to obtain the results of FIG. 9 will now be described. First, RBL-2H3 cells, available from ATCC (American Type Culture Collection) of Manassas, Va., were plated in 24 well plates at 5×10^4/well. Following adherence, the cells were exposed to the ingredients or combination of ingredients noted in FIG. 9, also referred to as samples. The samples were used at the concentrations noted in Table VI. Stock solutions of all samples were prepared in a solution of DMSO, ethanol, and water present in a ratio of 5:3:2 at 100 mg/ml. Each sample was then diluted in media to the final concentration. The cells were then incubated overnight with the samples. The following day a mouse anti-dinitrophenyl (DNP) IgE antibody, available from Sigma of St. Louis, Mo., was added to the cells at a final concentration of 1 ng/ml. The cells were incubated for 1.5 hr at 37° C. to allow binding of the IgE molecule to the cellular IgE receptor via the constant region of the antibody. Following this incubation period, the cells were washed twice. A solution containing DNP conjugated to BSA (DNP-BSA), available from Calbiochem of San Diego, Calif., was added to the cells at 0.5 ng/ml. […] Next, the measured OD450 data from the ELISA was inputted into a calibration graph to determine the amount by which histamine was reduced relative to an untreated control sample. […]
# [3] = system: LTC4 release, RBL-2H3 cells; assay: LTC4 release from IgE-sensitized, DNP-BSA stimulated RBL-2H3 cells (ELISA); assay type: cell-based; details: 0.1 μg/ml
# Description: as §2
# [4] = system: histamine release, RBL-2H3 cells; assay: Histamine release from IgE-sensitized, DNP-BSA stimulated RBL-2H3 cells (ELISA); assay type: cell-based; details: 10 ng/ml
# Description: The methodology used to obtain the results of FIG. 9 will now be described. First, RBL-2H3 cells, available from ATCC (American Type Culture Collection) of Manassas, Va., were plated in 24 well plates at 5×10^4/well. Following adherence, the cells were exposed to the ingredients or combination of ingredients noted in FIG. 9, also referred to as samples. The samples were used at the concentrations noted in Table VI. Stock solutions of all samples were prepared in a solution of DMSO, ethanol, and water present in a ratio of 5:3:2 at 100 mg/ml. Each sample was then diluted in media to the final concentration. The cells were then incubated overnight with the samples. The following day a mouse anti-dinitrophenyl (DNP) IgE antibody, available from Sigma of St. Louis, Mo., was added to the cells at a final concentration of 1 ng/ml. The cells were incubated for 1.5 hr at 37° C. to allow binding of the IgE molecule to the cellular IgE receptor via the constant region of the antibody. Following this incubation period, the cells were washed twice. A solution containing DNP conjugated to BSA (DNP-BSA), available from Calbiochem of San Diego, Calif., was added to the cells at 0.5 ng/ml. The cells were incubated an additional 1 hr at 37° C. The supernatants were assayed for the presence of histamine, PGD2 and/or LTC4 using ELISA kits commercially available from Cayman Chemical of Ann Arbor, Mich. according to the manufacturer's specifications. Next, the measured OD450 data from the ELISA was inputted into a calibration graph to determine the amount by which histamine was reduced relative to an untreated control sample. An example of a histamine calibration graph is illustrated in FIG. 10. Suffice it to say that calibration graphs for PGD2 and LTC4 are similar. The calibration graph in FIG. 10 was generated by measuring the OD450 of multiple, known concentrations of purified histamine. As shown in the graph, the X-axis indicates the concentrations of the histamine in nanomolar; and the Y-axis indicates the OD450 derived from each of the concentrations. The line 120 connects the data points, while line 130 is a trend line corresponding to the equation in this particular embodiment of: Y=−0.0025X^2+0.2915X+2.0775 Equation 2 With the histamine calibration graph, the amount of histamine for each sample was determined, and the subsequent data was input into Table VI and FIG. 9 for comparative analysis.
# [5] = system: IgE receptor (FcεRIα) on RBL-2H3 cells; assay: IgE receptor expression on RBL-2H3 cells (anti-FcεRIα cell ELISA normalized to MTT viability); assay type: cell-based
# Description: The methodology used to obtain the results of FIG. 1 will now be described. First, RBL-2H3 cells, available from ATCC (American Type Culture Collection) of Manassas, Va., were plated in 96 well plates at 3×10^4/well. Following adherence to the wells, the cells were exposed to the sample combinations of ingredients listed in Table I, each combination referred to as a “sample.” Stock solutions of all samples were prepared in a solution of DMSO, ethanol, and water present in a ratio of 5:3:2 at 100 mg/ml. […] Duplicate plates of each sample were prepared so that viability could be determined multiple times for each sample, with the results of the multiple samples averaged following treatment of the cells. The plates were incubated an additional 48 hours. To measure IgE-receptor expression, the cells were fixed for 2 hours with 1% gluteraldehyde. Following fixation, the cells were washed twice with PBS-Tween 20 (0.01%), available from Aldrich of Milwaukee, Wis. Protein binding sites were blocked for 2 hours with 2% non-fat dry milk in PBS (Phosphate Buffer Saline buffered at pH 7.3). The cells were washed twice. The primary antibody, Rabbit anti-FcεRIα, available from Upstate Group, Inc., Lake Placid, N.Y., was added to the wells and diluted 1:4000 with 0.2% BSA (Bovine Serum Albumin). Following a 2 hour incubation, the wells were washed 5× with PBS-Tween 20 (0.01%) solutions. The secondary antibody, Goat anti-rabbit IgG-peroxidase, available from Sigma-Aldrich of St. Louis, Mo., was added to the wells at 1:20000 with 0.2% BSA. Following a 1 hour incubation the wells were washed five times. 100 μliters (microliters) of TMB (3,3′,5,5±Tetramethyl benzidine dihydrochloride) Substrate, available from Chemicon International of Temecula, Calif., was added to the wells. Subsequent color development was stopped by the addition of a sufficient amount, H2SO4 (for example, 100 μliters at 1 Normal). For each of the multiple samples of the combination, the OD450 (Optical Density measured at a wavelength of 450 nanometers) was read on a plate reader. Continuing with a description of the methodology to obtain the data in FIG. 1, the viability of the cells was next determined by incubating the cells in the second plate with MTT in a concentration of 1 mg/ml for 3 hours. The reduced MTT was extracted with 70% isopropanol and the OD540 (Optical Density at a wavelength of 540 nanometers) was read for each of the multiple samples.
# [6] = system: IgE secretion by U266 human myeloma cells; assay: IgE secretion by U266 human myeloma cells (IgE ELISA of supernatants); assay type: cell-based; details: varying concentrations
# Description: The methodology used to obtain the results of FIG. 3 will now be described. First, U266 human myeloma cells, available from ATCC of Manassas, Va. were plated in 96 well plates at 4×10^4/well. The cells were exposed to the sample combinations of ingredients listed in Table I, each combination referred to as a “sample.” Stock solutions of all samples were prepared in a solution of DMSO, ethanol, and water present in a ratio of 5:3:2 at 100 mg/ml. Each sample was then diluted to 100 μg/ml in media. Duplicate plates of each sample were prepared so that viability could be determined multiple times for each sample, with the results of the multiple samples averaged following treatment of the cells. The plates were incubated an additional 48 hours. Thereafter, the amount of IgE in the supernatants was measured using a conventional quantitative IgE ELISA kit available from Bethyl Laboratories of Montgomery, Tex. Next, the measured OD450 data from the IgE ELISA was inputted into a calibration graph, illustrated in FIG. 4, to determine the concentration of IgE in ng/ml in each supernatant. This calibration graph was generated by measuring the OD450 of multiple, known concentrations (in nanograms per ml) of purified IgE. As shown in the graph, the X-axis indicates the concentrations of the IgE in ng/ml; and the Y-axis indicates the OD450 derived from each of the concentrations. The line 100 connects the data points, while line 110 is a trend line corresponding to the equation in this particular embodiment of: Y=0.2909X−0.2527 Equation 1 With the IgE calibration graph, the amount of IgE for each sample was determined, and the subsequent data was input into FIG. 3 for comparative analysis.
# [7] = immediate phase (two hours during the NAC)
compound,measurement,setting,value
"CCOC(=O)N1CCC(=C2c3ccc(Cl)cc3CCc3cccnc32)CC1 [Claritin, loratadine]",change of Prostaglandin D2 in nasal fluid after the NAC (FIG. 19),Prostaglandin D2,significant rise
same,Nasal Symptom Scores versus placebo,"[1]; delayed phase, at six hours and overall, Blend 450 mg per dose, Claritin 10 mg",significantly fewer
same,Nasal Symptom Score versus placebo (FIG. 15),"[1]; delayed phase, at two hours",trends toward significantly fewer symptoms
same,PRC score versus the Blend,[1]; [7],lower PRC score
same,sneezes versus the Blend,[1]; [7],fewer sneezes
same,Nasal Symptom Score versus the Blend,"[1]; immediate phase (two hours during the NAC), Claritin 10 mg per dose",lower Nasal Symptom Score
same,Nasal Symptom Score Areas Over the Curve versus placebo (FIG. 18),[1]; total product effect over eight hours,significantly better than the placebo
O=C(/C=C/c1ccc(O)c(O)c1)O[C@H](Cc1ccc(O)c(O)c1)C(=O)O [Rosmarinic acid],Percent Control of PGD2 Release (Table VI),[2],94%
same,Percent Control LTC4 Release (Table VI),[3],120%
same,Percent Control of Histamine Release (Table VI),[4],9.3%
O=C1O[C@H]([C@@H](O)CO)C(O)=C1O [Vitamin C],decrease in IgE receptor expression (FIG. 5),[5]; 200 micrograms per milliliter,15%
same,"effect on IgE receptor expression, in words (FIG. 5)",[5]; varying concentrations,significant effect
same,"inhibition of IgE secretion, in words (FIG. 6)",[6],inhibited IgE secretion
